Target: T1, G1 APOL1 (Homo sapiens, UniProt O14791, I384M/S342G)
T1 construct: expressed in transfected cells
T1 sequence (O14791 28-398 S342G/I384M): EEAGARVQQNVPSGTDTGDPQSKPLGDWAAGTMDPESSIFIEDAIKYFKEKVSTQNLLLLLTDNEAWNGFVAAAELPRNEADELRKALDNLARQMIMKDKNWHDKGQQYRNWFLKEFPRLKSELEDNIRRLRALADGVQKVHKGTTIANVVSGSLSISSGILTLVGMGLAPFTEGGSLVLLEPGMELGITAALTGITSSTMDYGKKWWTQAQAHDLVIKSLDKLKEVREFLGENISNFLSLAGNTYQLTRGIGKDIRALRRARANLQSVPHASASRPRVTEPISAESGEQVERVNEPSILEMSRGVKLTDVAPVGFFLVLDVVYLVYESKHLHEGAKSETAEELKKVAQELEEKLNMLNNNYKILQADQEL
Test: Acute APOL1 Thallium Assay with Inducible Stable Clones of HEK 293 Cells
Assay type: cell-based
Conditions: HEK 293 inducible stable clones, G1 APOL1; read-out: Thallium Assay (IC50)
Source text: Acute APOL1 Thallium Assay with Inducible Stable Clones of HEK 293 Cells
Apolipoprotein L1 (APOL1) proteins form potassium-permeable cation pores in the plasma membrane. APOL1 risk variants (G1 and G2) induce greater potassium flux than G0 in HEK293 cells. This assay exploits the permeability of thallium (Tl+) through ligand-gated potassium channels. The dye produces a bright fluorescent signal upon binding to Tl+ conducted through potassium channels. The intensity of the Tl+ signal is proportional to the number of potassium channels in the open state. Therefore, it provides a functional indication of the potassium channel activities. During the initial dye-loading step, the Tl+ indicator dye as an acetoxymethyl (AM) ester enters the cells through passive diffusion. Cytoplasm esterases cleave the AM ester and relieve its active thallium-sensitive form. The cells are then stimulated with Tl+. The increase of fluorescence in the assay represents the influx of Tl+ into the cell specifically through the potassium channel (i.e. through APOL1 pores), providing a functional measurement of potassium channel/pore activity. The Thallium assay is conducted with cells expressing G1 APOL1.
APOL1 Cell Line (HEK T-Rex Stable Inducible Cell Line) • HEK T-Rex System • Tetracycline (Tet) inducible mammalian expression system. • Stably express the Tet repressor to regulate transcription. • Expression under the full-length CMV promoter. • APOL1 stable inducible cell line Clone used: G1 DC3.25
Tissue Culture Media • Cell Culture Medium • DMEM+10% FBS+P/S+5 μg/mL blasticidin+1 μg/mL puromycin. • 500 mL DMEM+55 mL FBS+5 mL P/S+280 μL blasticidin S HCl (10 mg/mL)+56 μL puromycin (10 mg/mL). • Cell Assay Medium • DMEM with 2% FBS+penicillin/streptomycin.
Instruments and Equipment • Nuaire cell culture hood, Cat. No. 540-600 • 37° C./5% CO2 incubator link to robotic arm, Liconic: STX110 • Molecular Devices FLIPR^Tetra High throughput cellular screening system, Cat. No. FT0324, Molecular Devices • ThermoFisher MultiDrop 384, Cat. No. 5840300 • Biotek Microfill, Cat. No. ASF1000A-4145 • BioRad TC10 cell counter, Cat. No. 145-0010
Cells Scaled Up from Frozen Vials • APOL1 G1 3.25 (HEK293 T-Rex) frozen vials: 5 million cells per vial • Step 1, Day 1: Defrost frozen vial into T-225. • Step 2, Day 5: (when 85% confluent): Split one T-225 at 3×10^6 cells per flask. • Step 3, Day 8: Splits cells to set up for the assay plates as described below.
T-Rex APOL1 HEK cells are split twice per week to keep the confluence state below 85% of the culture flask surface area. Cells can be kept until passage 25. • Cell Culture Medium • DMEM high glucose+10% FBS, +P/S, +5 μg/mL blasticidin, +1 μg/mL puromycin. • 500 mL DMEM, +55 mL FBS, +5 mL P/S, +280 μL blasticidin 10 mg/mL, +56 μL Puromycin 10 mg/mL. • Assay Media • Opti-MEM reduced serum medium from Invitrogen.
Preparation of Cell Assay Plates • Culture medium is removed from the x cm^2 T-flask by aspiration. • The cell monolayer is rinsed with PBS 1× at room temperature. PBS is removed by aspiration. • Cells are trypsinized using Trypsin. • The flasks are incubated at room temperature for 2-3 minutes. • Complete DMEM medium is then added. Cell suspension is then transferred to a 50 mL Falcon polypropylene tube. • Cells are then counted using a BioRad TC10 cell counter and the required amount of cells are centrifuged at 1200 RPM for 5 minutes. Required amount is 1.3×10^6 cells/mL APOL1 T-Rex HEK cells. • The pellet is suspended in the assay medium. • Using the MultiDrop, add 20 μL to each well (corresponds to 26000 cells total per well) of a 384-well black, transparent, flat bottom Poly-D coated plate. • Tetracycline as prepared in the following section is added to the cells before plating to induce APOL1 expression. • Plates are left at room temperature for 20 to 30 minutes before incubation at 37° C. and 5% CO2. […]

| SMILES | IC50 |
| --- | --- |
| O=C(NCCc1c(-c2ccc(F)cc2)[nH]c2c(F)cc(F)cc12)NCc1ccoc1 [Compound 299] | > 1000 nM |
| C[C@@H](CO)N(C)C(=O)NCCc1c(-c2ccc(F)cc2)[nH]c2c(F)cc(F)cc12 [Compound 300] | > 1000 nM |
| CN(CCO)C(=O)NCCc1c(-c2ccc(F)cc2)[nH]c2c(F)cc(F)cc12 [Compound 302] | > 1000 nM |
| C[C@@H](CO)NC(=O)N(C)CCc1c(-c2ccc(F)cc2)[nH]c2c(F)cc(F)cc12 [Compound 303] | > 1000 nM |
| CC(C)(C)OC(=O)N[C@H](CO)C(=O)NCCc1c(-c2ccc(F)cc2)[nH]c2c(F)cc(F)cc12 [Compound 305, tert-butyl N-[(1R)-2-[2-[5,7-difluoro-2-(4-fluorophenyl)-1H-indol-3-yl]ethylamino]-1-(hydroxymethyl)-2-oxo-ethyl]carbamate] | > 1000 nM |
| O=C1N[C@@H](C(=O)NCCc2c(-c3ccc(F)cc3)[nH]c3c(F)cc(F)cc23)CO1 [Compound 306, (4R)—N-[2-[5,7-difluoro-2-(4-fluorophenyl)-1H-indol-3-yl]ethyl]-2-oxo-oxazolidine-4-carboxamide] | > 1000 nM |
| CC(C)(C)OC(=O)N[C@@H](CCO)C(=O)NCCc1c(-c2ccc(F)cc2)[nH]c2c(F)cc(F)cc12 [Compound 307] | > 1000 nM |
| CC(C)(C)OC(=O)N[C@@H](CO)C(=O)NCCc1c(-c2ccc(F)cc2)[nH]c2c(F)cc(F)cc12 [Compound 308] | > 1000 nM |
| O=C1CC(C(=O)NCCc2c(-c3ccc(F)cc3)[nH]c3c(F)cc(F)cc23)NC(=O)N1 (stereo not shown) [Compound 309] | > 1000 nM |
| CC(C)(C)OC(=O)NC1(C(=O)NCCc2c(-c3ccc(F)cc3)[nH]c3c(F)cc(F)cc23)CCC1 [Compound 311] | > 1000 nM |
| CC(C)(C)OC(=O)NC1(CC(=O)NCCc2c(-c3ccc(F)cc3)[nH]c3c(F)cc(F)cc23)CC1 [Compound 312] | > 1000 nM |
| C[C@H](NC(=O)OC(C)(C)C)C(=O)NCCc1c(-c2ccc(F)cc2)[nH]c2c(F)cc(F)cc12 [Compound 313] | > 1000 nM |
| O=C(NCCc1c(-c2ccc(F)cc2)[nH]c2c(F)cc(F)cc12)C1CC(O)(C(F)(F)F)C1 (stereo not shown) [Compound 314] | > 1000 nM |
| O=C(NCCc1c(-c2ccc(F)cc2)[nH]c2c(F)cc(F)cc12)c1cc(C(F)(F)F)n[nH]1 [Compound 315] | > 1000 nM |
| O=C(NCCc1c(-c2ccc(F)cc2)[nH]c2c(F)cc(F)cc12)c1c[nH]nc1C(F)(F)F [Compound 316] | > 1000 nM |
| CC(C)(C)OC(=O)NCC(=O)NCCc1c(-c2ccc(F)cc2)[nH]c2c(F)cc(F)cc12 [Compound 317] | > 1000 nM |
| O=C(CC1CC(=O)NC(=O)C1)NCCc1c(-c2ccc(F)cc2)[nH]c2c(F)cc(F)cc12 [Compound 318] | > 1000 nM |
| CC1(C(=O)NCCc2c(-c3ccc(F)cc3)[nH]c3c(F)cc(F)cc23)CCC(=O)NC1 (stereo not shown) [Compound 319] | > 1000 nM |
| O=C1CC(C(=O)NCCc2c(-c3ccc(F)cc3)[nH]c3c(F)cc(F)cc23)CC(=O)N1 [Compound 320] | > 1000 nM |
| CS(=O)(=O)NCC(=O)NCCc1c(-c2ccc(F)cc2)[nH]c2c(F)cc(F)cc12 [Compound 321] | > 1000 nM |
| O=C1N[C@H](C(=O)NCCc2c(-c3ccc(F)cc3)[nH]c3c(F)cc(F)cc23)CS1 [Compound 322] | > 1000 nM |
| O=C1N[C@H](C(=O)NCCc2c(-c3ccc(F)cc3)[nH]c3c(F)cc(F)cc23)CCO1 [Compound 323] | > 1000 nM |

The next lines start with the values.

| IC50 | SMILES |
| --- | --- |
| 250 to 1000 nM | O=C(NCCc1c(-c2ccc(F)cc2)[nH]c2c(F)cc(F)cc12)NC1(CCO)CC1 [Compound 274] |
| > 1000 nM | O=C(NCCc1c(-c2ccc(F)cc2)[nH]c2c(F)cc(F)cc12)NCC1(O)CCC1 [Compound 275] |
| > 1000 nM | O=C(NCCc1c(-c2ccc(F)cc2)[nH]c2c(F)cc(F)cc12)NCC1(CO)CC1 [Compound 276] |
| > 1000 nM | O=C(NCCc1c(-c2ccc(F)cc2)[nH]c2c(F)cc(F)cc12)N[C@H]1CCNC1=O [Compound 277] |
| > 1000 nM | CC(O)CCNC(=O)NCCc1c(-c2ccc(F)cc2)[nH]c2c(F)cc(F)cc12 (stereo not shown) [Compound 278] |
| > 1000 nM | CC(C)(O)CNC(=O)NCCc1c(-c2ccc(F)cc2)[nH]c2c(F)cc(F)cc12 [Compound 279] |
| > 1000 nM | C[C@H](NC(=O)NCCc1c(-c2ccc(F)cc2)[nH]c2c(F)cc(F)cc12)C(=O)O [Compound 281] |
| 250 to 1000 nM | C[C@H](CO)NC(=O)NCCc1c(-c2ccc(F)cc2)[nH]c2c(F)cc(F)cc12 [Compound 282] |
| > 1000 nM | C[C@H](O)CNC(=O)NCCc1c(-c2ccc(F)cc2)[nH]c2c(F)cc(F)cc12 [Compound 284] |
| > 1000 nM | O=C(O)CNC(=O)NCCc1c(-c2ccc(F)cc2)[nH]c2c(F)cc(F)cc12 [Compound 285] |
| > 1000 nM | O=C(NCCO)NCCc1c(-c2ccc(F)cc2)[nH]c2c(F)cc(F)cc12 [Compound 286] |
| > 1000 nM | CS(=O)(=O)CCNC(=O)NCCc1c(-c2ccc(F)cc2)[nH]c2c(F)cc(F)cc12 [Compound 287] |
| > 1000 nM | O=C(NCCc1ccncc1)NCCc1c(-c2ccc(F)cc2)[nH]c2c(F)cc(F)cc12 [Compound 288] |
| > 1000 nM | O=C(NCCc1c(-c2ccc(F)cc2)[nH]c2c(F)cc(F)cc12)NCC1CC(F)(F)C1 [Compound 289] |
| > 1000 nM | O=C(NCCc1c(-c2ccc(F)cc2)[nH]c2c(F)cc(F)cc12)NCC1CCOCC1 [Compound 291] |
| > 1000 nM | COCC1(CNC(=O)NCCc2c(-c3ccc(F)cc3)[nH]c3c(F)cc(F)cc23)CC1 [Compound 292] |
| > 1000 nM | O=C(NCCc1c(-c2ccc(F)cc2)[nH]c2c(F)cc(F)cc12)NCC1CCCOC1 (stereo not shown) [Compound 293] |
| > 1000 nM | CN1CC(NC(=O)NCCc2c(-c3ccc(F)cc3)[nH]c3c(F)cc(F)cc23)CC1=O (stereo not shown) [Compound 294] |
| > 1000 nM | Cc1occc1CNC(=O)NCCc1c(-c2ccc(F)cc2)[nH]c2c(F)cc(F)cc12 [Compound 295] |
| > 1000 nM | O=C(NCCc1c(-c2ccc(F)cc2)[nH]c2c(F)cc(F)cc12)N1CCC[C@H]1CO [Compound 296] |
| > 1000 nM | O=C(NCCc1c(-c2ccc(F)cc2)[nH]c2c(F)cc(F)cc12)NCC1CCCO1 (stereo not shown) [Compound 297] |
| > 1000 nM | CC1(CNC(=O)NCCc2c(-c3ccc(F)cc3)[nH]c3c(F)cc(F)cc23)COC1 [Compound 298] |
| 250 to 1000 nM | CC(C)(C)OC(=O)NC(CC(N)=O)C(=O)NCCc1c(-c2ccc(F)cc2)[nH]c2c(F)cc(F)cc12 (stereo not shown) [Compound 304, tert-butyl N-[3-amino-1-[2-[5,7-difluoro-2-(4-fluorophenyl)-1H-indol-3-yl]ethylcarbamoyl]-3-oxo-propyl]carbamate] |
| 250 to 1000 nM | O=C(NCCc1c(-c2ccc(F)cc2)[nH]c2c(F)cc(F)cc12)C(O)CO (stereo not shown) [Compound 310] |

Reference: US20230014907A1, “INHIBITORS OF APOL1 AND METHODS OF USING SAME” (Vertex Pharmaceuticals Incorporated, priority 2020, published 2023)
